From ChEMBL document CHEMBL6127029, “Glutathione-dependent degradation of SMARCA2/4 for targeted lung cancer therapy with improved selectivity” (Eur J Med Chem, 2024) come the findings set out here.

Series [1] concerns the target T1, von Hippel-Lindau disease tumor suppressor/SWI/SNF-related matrix-associated actin-dependent regulator of chromatin subfamily A member 2 (Homo sapiens) (UniProt P51531+P40337). Briefly: PROTAC activity at VHL/SMARCA2 in human 786-0 cells harboring mutated VHL assessed as induction of SMARCA2 degradation at 0.1 to 5 uM incubated for 8 hrs by Western blotting analysis. Type of series: cell-based. The conditions noted are these: dose 0.1-5 µM. On the technique in general: A western blot detects proteins with antibodies after separation by electrophoresis.

The subject of a further series is NCI-H1299. The series is described as follows: Cytotoxicity against human NCI-H1299 cells assessed as inhibition of cell growth incubated for 3 days by MTT assay. Type of series: functional, cell-based. The conditions noted are these: NCI-H1299, 72 h.
In another series the test system is HuLEC-5a. Briefly: Inhibition of cell migration in human HuLEC-5a cells at 10 uM incubated for 36 hrs by scratch wound healing based fluorescent microscopic analysis. Type of series: functional.
Series [2] has as its system A549. Briefly: Cytotoxicity against human A549 cells assessed as inhibition of cell growth incubated for 3 days by MTT assay. Type of series: functional, cell-based. The conditions noted are these: A549, 72 h.
Series [3] deals with T1, von Hippel-Lindau disease tumor suppressor/SWI/SNF-related matrix-associated actin-dependent regulator of chromatin subfamily A member 2 (Homo sapiens). Briefly: PROTAC activity at VHL/SMARCA2 in human A549 cells assessed as induction of SMARCA2 degradation at 1 uM pretreated with MLN4924 followed by compound addition and measured after 8 hrs by Western blotting analysis. Type of series: cell-based.

Series [4] has as its target T2, von Hippel-Lindau disease tumor suppressor/SWI/SNF-related matrix-associated actin-dependent regulator of chromatin subfamily A member 4 (Homo sapiens) (UniProt P51532+P40337). The series is described as follows: PROTAC activity at VHL/SMARCA4 in human HEK-293T cells assessed as induction of SMARCA4 degradation at 1 uM by Western blotting analysis. The conditions noted are these: TDE = time-dependent effect. It counts as cell-based.

Series [5] can be described thus: Cytotoxicity against human HuLEC-5a cells assessed as inhibition of cell growth incubated for 3 days by MTT assay. It counts as toxicity, cell-based.
Series [6] deals with A549. The series is described as follows: Inhibition of cell migration in human A549 cells at 10 uM incubated for 36 hrs by scratch wound healing based fluorescent microscopic analysis. Type of series: functional.
The target in series [7] is T2, von Hippel-Lindau disease tumor suppressor/SWI/SNF-related matrix-associated actin-dependent regulator of chromatin subfamily A member 4 (Homo sapiens). Briefly: PROTAC activity at VHL/SMARCA4 in human 786-0 cells harboring mutated VHL assessed as induction of SMARCA4 degradation at 0.1 to 5 uM incubated for 8 hrs by Western blotting analysis. It counts as cell-based. The conditions noted are these: dose 0.1-5 µM.

Series [8] has the same target. Briefly: PROTAC activity at VHL/SMARCA4 in human HEK-293T cells assessed as induction of SMARCA4 degradation at 1 uM incubated for 24 hrs by Western blotting analysis relative to control. Type of series: cell-based.
In series [9] the target is T1, von Hippel-Lindau disease tumor suppressor/SWI/SNF-related matrix-associated actin-dependent regulator of chromatin subfamily A member 2 (Homo sapiens). Briefly: PROTAC activity at VHL/SMARCA2 in human A549 cells harboring shRNA mediated VHL knockdown assessed as induction of SMARCA2 degradation at 0.1 to 2 uM incubated for 8 hrs by Western blotting analysis. It counts as cell-based. The conditions noted are these: dose 0.1-2 µM.

For series [10] the target is unchanged. Briefly: PROTAC activity at VHL/SMARCA2 in human A549 cells assessed as induction of SMARCA2 degradation at 1 uM by Western blotting analysis. It counts as cell-based. The conditions noted are these: TDE = time-dependent effect.
Series [11] shares this target. The series is described as follows: PROTAC activity at VHL/SMARCA2 in human A549 cells assessed as induction of SMARCA2 degradation at 1 uM pretreated with MG132 followed by compound addition and measured after 8 hrs by Western blotting analysis. Type of series: cell-based.
Series [12] shares this target. The series is described as follows: PROTAC activity at VHL/SMARCA2 in human NCI-H1299 cells assessed as induction of SMARCA2 degradation at 1 uM by Western blotting analysis. It counts as cell-based. The conditions noted are these: TDE = time-dependent effect.
Series [13] has the same target. Briefly: PROTAC activity at VHL/SMARCA2 in human HEK-293T cells assessed as induction of SMARCA2 degradation at 1 uM by Western blotting analysis. Type of series: cell-based. The conditions noted are these: TDE = time-dependent effect.
The target of series [14] is T2, von Hippel-Lindau disease tumor suppressor/SWI/SNF-related matrix-associated actin-dependent regulator of chromatin subfamily A member 4 (Homo sapiens). Briefly: PROTAC activity at VHL/SMARCA4 in human HuLEC-5a cells assessed as induction of SMARCA4 degradation at 1 uM by Western blotting analysis. It counts as cell-based. The conditions noted are these: TDE = time-dependent effect.

Series [15] concerns the target T1, von Hippel-Lindau disease tumor suppressor/SWI/SNF-related matrix-associated actin-dependent regulator of chromatin subfamily A member 2 (Homo sapiens). Briefly: PROTAC activity at VHL/SMARCA2 in human HuLEC-5a cells assessed as induction of SMARCA2 degradation at 1 uM by Western blotting analysis. It counts as cell-based. The conditions noted are these: TDE = time-dependent effect.

Series [16] has the same target. The series is described as follows: PROTAC activity at VHL/SMARCA2 in human NCI-H1299 cells harboring shRNA mediated VHL knockdown assessed as induction of SMARCA2 degradation at 0.1 to 2 uM incubated for 8 hrs by Western blotting analysis. It counts as cell-based. The conditions noted are these: dose 0.1-2 µM.
Series [17] has the same target. The series is described as follows: PROTAC activity at VHL/SMARCA2 in human HEK-293T cells assessed as induction of SMARCA2 degradation at 1 uM incubated for 24 hrs by Western blotting analysis relative to control. Type of series: cell-based.
For series [18] the target is unchanged. Briefly: PROTAC activity at VHL/SMARCA2 in human A549 cells assessed as induction of SMARCA2 degradation at 1 uM incubated for 24 hrs by Western blotting analysis. Type of series: cell-based.
Series [19] in a line: Stability of the compound in cell culture medium containing 10% fetal bovine serum assessed as drug degradation at 50 uM incubated for 12 hrs by HPLC analysis. It counts as physicochemical, cell-free. The conditions noted are these: cattle, read-out: Drug degradation.
The nature of series [20]: Stability of the compound in cell culture medium containing 10% fetal bovine serum at 50 uM incubated for 12 hrs by HPLC analysis. It counts as physicochemical, cell-free. The conditions noted are these: cattle.

pIC50: −log10 of the molar value. Active and inactive are the calls of the source. No cut-off for these calls is given here.

T1 sequence (P40337 whole entry, looked up): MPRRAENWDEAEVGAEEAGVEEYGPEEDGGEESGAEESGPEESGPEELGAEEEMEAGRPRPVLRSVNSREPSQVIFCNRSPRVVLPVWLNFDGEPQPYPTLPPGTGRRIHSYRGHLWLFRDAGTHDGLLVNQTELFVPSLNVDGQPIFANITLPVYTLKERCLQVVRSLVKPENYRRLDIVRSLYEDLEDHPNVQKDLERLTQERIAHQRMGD
T1 sequence (P51531 whole entry, looked up): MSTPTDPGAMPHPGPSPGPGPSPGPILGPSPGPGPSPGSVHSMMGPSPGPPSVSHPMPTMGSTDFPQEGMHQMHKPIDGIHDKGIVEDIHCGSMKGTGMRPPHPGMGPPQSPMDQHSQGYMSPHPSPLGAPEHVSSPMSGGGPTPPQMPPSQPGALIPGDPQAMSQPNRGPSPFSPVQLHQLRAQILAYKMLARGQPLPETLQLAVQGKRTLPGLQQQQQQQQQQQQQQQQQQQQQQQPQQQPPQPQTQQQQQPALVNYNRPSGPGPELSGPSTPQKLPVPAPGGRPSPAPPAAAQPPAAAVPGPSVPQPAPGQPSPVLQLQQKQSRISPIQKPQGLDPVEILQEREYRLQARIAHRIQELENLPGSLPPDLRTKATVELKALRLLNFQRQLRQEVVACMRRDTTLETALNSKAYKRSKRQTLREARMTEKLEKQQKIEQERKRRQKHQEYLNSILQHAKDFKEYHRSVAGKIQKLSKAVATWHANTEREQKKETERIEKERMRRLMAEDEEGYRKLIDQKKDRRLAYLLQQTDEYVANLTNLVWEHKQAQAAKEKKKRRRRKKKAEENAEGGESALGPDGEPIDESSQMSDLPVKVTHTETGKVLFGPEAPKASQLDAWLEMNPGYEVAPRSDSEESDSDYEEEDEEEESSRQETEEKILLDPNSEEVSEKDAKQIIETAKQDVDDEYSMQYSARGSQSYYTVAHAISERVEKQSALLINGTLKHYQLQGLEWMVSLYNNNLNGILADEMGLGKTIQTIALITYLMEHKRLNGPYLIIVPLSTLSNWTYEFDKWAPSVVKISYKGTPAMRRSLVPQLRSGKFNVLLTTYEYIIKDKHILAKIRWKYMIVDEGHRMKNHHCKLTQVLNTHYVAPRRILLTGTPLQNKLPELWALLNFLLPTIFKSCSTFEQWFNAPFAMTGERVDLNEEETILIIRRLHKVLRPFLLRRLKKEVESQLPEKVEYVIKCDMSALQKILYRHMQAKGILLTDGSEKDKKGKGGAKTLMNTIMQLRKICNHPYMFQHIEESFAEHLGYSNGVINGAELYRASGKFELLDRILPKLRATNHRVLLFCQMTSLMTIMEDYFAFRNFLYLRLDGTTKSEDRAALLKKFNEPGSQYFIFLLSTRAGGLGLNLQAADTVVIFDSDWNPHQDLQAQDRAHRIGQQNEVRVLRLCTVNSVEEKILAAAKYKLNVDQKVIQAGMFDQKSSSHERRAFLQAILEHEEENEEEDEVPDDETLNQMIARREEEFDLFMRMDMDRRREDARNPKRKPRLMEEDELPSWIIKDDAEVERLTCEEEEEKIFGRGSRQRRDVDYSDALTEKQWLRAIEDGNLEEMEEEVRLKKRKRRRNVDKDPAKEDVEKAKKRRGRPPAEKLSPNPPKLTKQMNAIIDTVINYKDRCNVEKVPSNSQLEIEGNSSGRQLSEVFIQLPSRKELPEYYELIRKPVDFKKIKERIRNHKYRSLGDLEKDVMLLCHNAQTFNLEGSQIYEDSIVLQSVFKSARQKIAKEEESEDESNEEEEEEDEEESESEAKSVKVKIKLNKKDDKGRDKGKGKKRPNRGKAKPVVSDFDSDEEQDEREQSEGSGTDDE
T2 sequence (P40337 whole entry, looked up): as the sequence (P40337 whole entry, looked up) above
T2 sequence (P51532 whole entry, looked up): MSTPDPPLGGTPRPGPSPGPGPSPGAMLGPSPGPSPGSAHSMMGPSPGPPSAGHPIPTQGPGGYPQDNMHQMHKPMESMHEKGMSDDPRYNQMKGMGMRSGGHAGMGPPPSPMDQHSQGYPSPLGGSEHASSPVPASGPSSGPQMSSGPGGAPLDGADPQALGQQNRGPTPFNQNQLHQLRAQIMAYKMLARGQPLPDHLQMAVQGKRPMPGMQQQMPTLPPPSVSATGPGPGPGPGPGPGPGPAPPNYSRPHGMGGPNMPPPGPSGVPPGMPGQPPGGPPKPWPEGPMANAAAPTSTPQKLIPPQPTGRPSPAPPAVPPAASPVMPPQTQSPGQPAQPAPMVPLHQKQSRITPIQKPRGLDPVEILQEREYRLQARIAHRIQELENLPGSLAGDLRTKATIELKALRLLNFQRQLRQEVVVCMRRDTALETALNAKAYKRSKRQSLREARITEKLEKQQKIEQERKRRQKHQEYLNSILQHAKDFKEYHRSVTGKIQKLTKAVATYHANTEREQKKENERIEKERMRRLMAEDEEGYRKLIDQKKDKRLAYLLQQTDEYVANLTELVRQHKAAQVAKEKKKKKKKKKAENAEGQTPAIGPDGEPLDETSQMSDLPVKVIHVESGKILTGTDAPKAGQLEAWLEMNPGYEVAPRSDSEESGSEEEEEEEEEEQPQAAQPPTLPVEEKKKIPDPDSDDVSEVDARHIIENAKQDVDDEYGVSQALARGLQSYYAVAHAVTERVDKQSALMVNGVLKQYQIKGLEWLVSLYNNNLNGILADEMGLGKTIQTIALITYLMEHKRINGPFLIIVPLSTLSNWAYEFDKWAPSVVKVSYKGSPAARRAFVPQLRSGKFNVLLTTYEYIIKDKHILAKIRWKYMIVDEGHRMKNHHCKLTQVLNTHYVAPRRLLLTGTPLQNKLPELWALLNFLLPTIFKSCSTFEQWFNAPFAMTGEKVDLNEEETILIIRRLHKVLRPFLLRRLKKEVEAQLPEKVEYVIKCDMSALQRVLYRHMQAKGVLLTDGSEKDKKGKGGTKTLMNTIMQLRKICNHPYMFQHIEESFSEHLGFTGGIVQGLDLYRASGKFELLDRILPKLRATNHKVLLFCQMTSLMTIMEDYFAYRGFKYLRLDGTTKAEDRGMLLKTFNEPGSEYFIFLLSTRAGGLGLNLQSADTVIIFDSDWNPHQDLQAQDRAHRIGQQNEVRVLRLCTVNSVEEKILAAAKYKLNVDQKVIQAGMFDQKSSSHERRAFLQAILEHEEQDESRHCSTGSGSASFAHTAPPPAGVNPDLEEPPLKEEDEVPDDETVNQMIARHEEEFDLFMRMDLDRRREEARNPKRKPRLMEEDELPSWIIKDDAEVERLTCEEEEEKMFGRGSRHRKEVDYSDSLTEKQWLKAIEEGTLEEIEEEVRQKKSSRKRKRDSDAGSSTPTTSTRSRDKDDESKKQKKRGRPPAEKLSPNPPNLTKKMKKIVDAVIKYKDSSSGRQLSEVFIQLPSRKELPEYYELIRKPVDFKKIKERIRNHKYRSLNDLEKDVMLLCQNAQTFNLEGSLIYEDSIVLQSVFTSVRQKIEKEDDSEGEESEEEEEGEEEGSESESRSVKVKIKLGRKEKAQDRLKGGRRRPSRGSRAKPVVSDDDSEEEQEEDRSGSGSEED

By pIC50 is commonly meant the negative decadic logarithm of the IC50, by convention in mol/L. As usually defined, the IC50 is the concentration at which inhibition is half-maximal. For `Cc1ncsc1-c1ccc(CNC(=O)[C@@H]2C[C@@H](O)CN2C(=O)[C@@H](NC(=O)CN2CCN(c3cc(-c4ccccc4O)nnc3N)CC2)C(C)(C)C)cc1`, the outcome in series [1], in series [3], in series [7], in series [9], in series [11] and in [16] was inactive. Moreover, the pIC50 in the series on NCI-H1299 was 5.85; in the series on A549 [2], 5.89. Besides, the inhibition result in the series on HuLEC-5a is “inactive”. Further, the Activity entry in series [4] was “Tde”; in [8], under 10%; in series [10], “Tde”; in [12], “Tde”; in series [13] it was “Tde”; in series [14], “Tde”. The results for the Activity result in series [15] and in [17] were “Tde” and under 10%, respectively. The IC50 at 3 days in series [5] was 24.5 µM. For the same compound, the inhibition result with A549 [6] is “Active”. Besides, in series [18], the result was Active.
In the case of `Cc1ncsc1-c1ccc(CNC(=O)[C@@H]2C[C@@H](O)CN2C(=O)[C@@H](NC(=O)CN2CCN(c3cc(-c4ccccc4OS(=O)(=O)c4ccc([N+](=O)[O-])c(F)c4)nnc3N)CC2)C(C)(C)C)cc1`, the degraded at 12 h, 50 µM in series [19] is over 60%. Besides, in [20], the Stability result was “Unstable”.
